Assay results as given in PMC2655646, “A Conserved Mechanism for Control of Human and Mouse Embryonic Stem Cell Pluripotency and Differentiation by Shp2 Tyrosine Phosphatase” (PLoS ONE, 2009).

Legend:
[1] = biological target: T1, Shp1 (Mus musculus, UniProt P29351); test: phosphatase inhibition assay with purified GST-PTP domain; assay type: biochemical
T1 construct: gene Ptpn6; GST-tagged PTP domain
T1 sequence (P29351 244-515 limits assumed): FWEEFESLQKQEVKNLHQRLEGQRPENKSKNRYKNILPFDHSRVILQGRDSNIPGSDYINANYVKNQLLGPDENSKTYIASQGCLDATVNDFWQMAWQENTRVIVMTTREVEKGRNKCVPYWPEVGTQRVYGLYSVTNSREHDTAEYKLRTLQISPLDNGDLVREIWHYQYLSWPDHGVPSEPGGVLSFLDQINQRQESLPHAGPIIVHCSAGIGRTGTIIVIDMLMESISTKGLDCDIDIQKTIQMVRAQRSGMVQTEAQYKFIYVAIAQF

[2] = biological target: T2, Shp2 (Mus musculus, UniProt P35235); test: pNPP phosphatase assay with purified GST-PTP domain, absorbance at […] nm; Ki also determined ([…]); assay type: biochemical
T2 construct: gene Ptpn11; GST-tagged PTP domain
T2 sequence (P35235 247-521 limits assumed): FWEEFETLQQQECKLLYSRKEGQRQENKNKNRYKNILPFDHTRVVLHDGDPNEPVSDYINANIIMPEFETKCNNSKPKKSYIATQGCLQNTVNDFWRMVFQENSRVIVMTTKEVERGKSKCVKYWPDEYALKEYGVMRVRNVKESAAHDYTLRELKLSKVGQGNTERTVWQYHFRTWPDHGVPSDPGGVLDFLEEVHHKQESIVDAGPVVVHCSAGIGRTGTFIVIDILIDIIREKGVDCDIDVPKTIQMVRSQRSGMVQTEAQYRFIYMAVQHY

IC50 [1]: 2.3 µM | IC50 [2]: 2.1 µM
Compound: O=C(O)c1cc(O)c(=O)c2c(O)c(O)ccc2c1 [DCA, 7-deshydroxypyrogallin-4-carboxylic acid]
